Series [1] in a line: Tolerability in CD1 mice: body weight and organ weight (Example 41). To be noted: 50 mg/kg s.c. twice per week for 6 weeks.
For series [2], the system named is Factor 11 protein. The experiment in a line: Factor 11 protein in monkey plasma by sandwich ELISA (Example 45). It counts as in vivo, cynomolgus monkeys. To be noted: for Inhibition of Factor 11 protein relative to the PBS control: plasma ELISA. On the procedure: (§1) Groups, each consisting of two male and three female monkeys, were injected subcutaneously with ISIS 416838, ISIS 416850, ISIS 416858, ISIS 416864, or ISIS 417002 in escalating doses. Antisense oligonucleotide was administered to the monkeys at 5 mg/kg three times per a week for week 1; 5 mg/kg twice per week for weeks 2 and 3; 10 mg/kg three times per week for week 4; 10 mg/kg twice per week for weeks 5 and 6; 25 mg/kg three times per week for week 7; and 25 mg/kg twice per week for weeks 8, 9, 10, 11, and 12. One control group, consisting of two male and three female monkeys, was injected subcutaneously with PBS according to the same dosing regimen. An additional experimental group, consisting of two male and three female monkeys, was injected subcutaneously with ISIS 416850 in a chronic, lower dose regimen. Antisense oligonucleotide was administered to the monkeys at 5 mg/kg three times per week for week 1; 5 mg/kg twice per week for week 2 and 3; 10 mg/kg three times per week for week 4; and 10 mg/kg twice per week for weeks 5 to 12. Body weights were measured weekly. Blood samples were collected 14 days and 5 days before the start of treatment and subsequently once per week for Factor 11 protein activity analysis in plasma, fibrinogen measurement, PT and aPTT measurements, bleeding times, and measurement of various hematologic factors. On day 85, the monkeys were euthanized by exsanguination while under deep anesthesia, and organs harvested for further analysis.
Plasma samples from all monkey groups taken on different days were analyzed by a sandwich-style ELISA assay (Affinity Biologicals Inc.) using an affinity-purified polyclonal anti-Factor 11 antibody as the capture antibody and a peroxidase-conjugated polyclonal anti-Factor 11 antibody as the detecting antibody. Monkey plasma was diluted 1:50 for the assay. Peroxidase activity was expressed by incubation with the substrate o-phenylenediamine. The color produced was quantified using a microplate reader at 490 nm and was considered to be proportional to the concentration of Factor 11 in the samples.
The results are presented in Table 115, expressed as percentage reduction relative to that of the PBS control.

Series [3] in a line: Body and organ weights of cynomolgus monkeys (Example 45). It counts as in vivo. The procedure: as §1
Body weights were taken once weekly throughout the dosing regimen. […] Organ weights were taken after the animals were euthanized and livers, kidneys and spleens were harvested and weighed. […] The ISIS oligonucleotide, ISIS 416850, given with the chronic dose regimen is distinguished from the other oligonucleotides with an asterisk (*).

Series [4] in a line: Tolerability in Sprague-Dawley rats: liver function (Example 35). Particulars: plasma, 50 mg/kg s.c. twice per week for 6 weeks.
Series [5] in a line: Kidney function, urine protein to creatinine ratio in cynomolgus monkeys (Example 45). It counts as in vivo. The procedure:
as §1
To evaluate the impact of ISIS oligonucleotides on kidney function, urine samples were collected.

Series [6] can be described thus: Tolerability in CD1 mice: hematology assays (Example 41). Particulars: 50 mg/kg s.c. twice per week for 6 weeks, blood.
A short description of series [7]: Tolerability in CD1 mice: body weight and organ weight (Example 43). It counts as in vivo. To be noted: 50 mg/kg s.c. twice per week for 6 weeks, at the end of the study. The source says: The body weights of the mice taken at the end of the study are presented in Table 104 and are expressed in grams.
The mark [8] stands for this setting: day 15, escalating dose regimen.
Where [9] appears, read: day 22, escalating dose regimen.
Where [10] appears, read: day 29, escalating dose regimen.
[11] abbreviates: day 36, escalating dose regimen.
Setting [12] is: day 43, escalating dose regimen.
The mark [13] stands for this setting: day 50, escalating dose regimen.
Setting [14] is: day 57, escalating dose regimen.
The mark [15] stands for this setting: day 64, escalating dose regimen.
Where [16] appears, read: day 71, escalating dose regimen.
The mark [17] stands for this setting: day 78, escalating dose regimen.

Strand notation (5' to 3'): a small letter for the sugar, then the base; units joined by * are phosphorothioate-linked, units joined directly phosphodiester-linked; [ ] holds rarer units or linkages, { } end groups; capitals alone tell only the bases. e = 2'-O-(2-methoxyethyl) (MOE); [5mC] = 5-methylcytosine; d = 2'-deoxy (DNA)

In the case of “ISIS 416850: MOE gapmer, nucleobases 1275 to 1318 of SEQ ID NO: 1 (Table 8) (antisense TGCACAGTTTCTGGCAGGCC; MOE gapmer, wing and gap sizes not given here)”, the body weight in series [1] (increase in grams over the PBS control weight taken before the start of treatment) turned out to be 11 g. This substance also registered a Kidney weight in series [1] (percentage of the body weight) of 1.5%. The substance also displayed a Liver weight in series [1] (percentage of the body weight) of 6%. In series [1] (percentage of the body weight), this substance registered a Spleen weight of 0.4%. Moreover, the “Factor 11 protein levels in plasma” value in series [2] (cynomolgus monkeys, escalating dose regimen, ELISA) is on record as “time-dependent decrease in protein levels”. Moreover, the “Inhibition of Factor 11 protein relative to the PBS control” value in series [2] (day 8, chronic, lower dose regimen (*)) came to 6%; in series [2] (day 8, escalating dose regimen), 8%; in series [2] (day 15, chronic, lower dose regimen (*)), 13%; in series [2] (setting [8]) it was 4%; in series [2] (day 22, chronic, lower dose regimen (*)), 12%; in series [2] (setting [9]), 11%. In addition, the “Inhibition of Factor 11 protein relative to the PBS control” value in series [2] (day 29, chronic, lower dose regimen (*)) amounted to 20%; in series [2] (setting [10]) it was 15%; in series [2] (day 36, chronic, lower dose regimen (*)), 22%; in series [2] (setting [11]), 17%; in series [2] (day 43, chronic, lower dose regimen (*)) it was 24%; in series [2] (setting [12]), 23%. Further, the “Inhibition of Factor 11 protein relative to the PBS control” value in series [2] (day 50, chronic, lower dose regimen (*)) amounted to 30%; in series [2] (setting [13]), 42%; in series [2] (day 57, chronic, lower dose regimen (*)) it was 34%; in series [2] (setting [14]) it was 49%; in series [2] (day 64, chronic, lower dose regimen (*)), 37%; in series [2] (setting [15]), 55%. For the same substance, the “Inhibition of Factor 11 protein relative to the PBS control” value worked out at 41% in series [2] (day 71, chronic, lower dose regimen (*)); 57% in series [2] (setting [16]); 42% in series [2] (day 78, chronic, lower dose regimen (*)); 63% in series [2] (setting [17]); 34% in series [2] (day 85, chronic, lower dose regimen (*)); 64% in series [2] (day 85, escalating dose regimen). The “Inhibition of Factor 11 protein relative to the PBS control” value in series [2] (day −5, chronic, lower dose regimen (*)) was 1%; in series [2] (day −5, escalating dose regimen) it was 0%; in series [2] (day −14, chronic, lower dose regimen (*)) it was 0%; in series [2] (day −14, escalating dose regimen), 0%. Also, the body weights is recorded as 2665 g in series [3] (day 1, chronic dose regimen (*)); 2572 g in series [3] (day 1, escalating dose regimen); 2579 g in series [3] (day 8, chronic dose regimen (*)); 2430 g in series [3] (day 8, escalating dose regimen); 2607 g in series [3] (day 15, chronic dose regimen (*)); 2474 g in series [3] (setting [8]). The body weights is given as 2661 g in series [3] (day 22, chronic dose regimen (*)); 2514 g in series [3] (setting [9]); 2667 g in series [3] (day 29, chronic dose regimen (*)); 2515 g in series [3] (setting [10]); 2656 g in series [3] (day 36, chronic dose regimen (*)); 2545 g in series [3] (setting [11]). For the same substance, the body weights was 2670 g in series [3] (day 43, chronic dose regimen (*)); 2544 g in series [3] (setting [12]); 2679 g in series [3] (day 50, chronic dose regimen (*)); 2613 g in series [3] (setting [13]); 2629 g in series [3] (setting [14]); 2642 g in series [3] (setting [15]). The body weights is recorded as 2769 g in series [3] (setting [16]) and 2660 g in series [3] (setting [17]). In series [4], the ALT was found to be 80 IU/L. The AST in series [4] turned out to be 5 IU/L. In series [4], this substance had an Albumin of 4. The same substance registered a Bilirubin in series [4] of 1 mg/dL. Moreover, the “urine protein to creatinine ratio” value in series [5] (Day 80) amounted to 0.09; in series [5] (Day 84) it was 0.12. Besides, the HCT in series [6] was found to be 50%. In addition, the Lymphocyte in series [6] is 4710. The Neutrophil in series [6] worked out at 1314. This substance also returned a Platelets in series [6] of 614. The same substance yielded an RBC in series [6] of 9.8. For the same substance, the WBC in series [6] was 6. Further, the hemoglobin in series [6] is given as 14.8 g/dL.

“ISIS 449707: 3-8-3, 4-8-4, 2-10-2, 3-10-3 or 4-10-4 MOE microwalk gapmer (Table 46) (antisense e[5mC]*eA*e[5mC]*eA*dG*dT*dT*dT*d[5mC]*dT*dG*dG*e[5mC]*eA*eG*eG)” yielded a body weight in series [7] of 42 g.

In series [7], “ISIS 449708: 3-8-3, 4-8-4, 2-10-2, 3-10-3 or 4-10-4 MOE microwalk gapmer (Table 46) (antisense eA*e[5mC]*eA*dG*dT*dT*dT*d[5mC]*dT*dG*dG*e[5mC]*eA*eG)” returned a body weight of 40 g.

The substance “ISIS 449709: 3-8-3, 4-8-4, 2-10-2, 3-10-3 or 4-10-4 MOE microwalk gapmer (Table 46) (antisense eG*e[5mC]*eA*e[5mC]*dA*dG*dT*dT*dT*d[5mC]*dT*dG*dG*d[5mC]*eA*eG*eG*e[5mC])” returned a body weight in series [7] of 40 g.

As to “ISIS 449710: 3-8-3, 4-8-4, 2-10-2, 3-10-3 or 4-10-4 MOE microwalk gapmer (Table 46) (antisense e[5mC]*eA*e[5mC]*dA*dG*dT*dT*dT*d[5mC]*dT*dG*dG*d[5mC]*eA*eG*eG)”, the body weight in series [7] came to 42 g.

“ISIS 449711: 3-8-3, 4-8-4, 2-10-2, 3-10-3 or 4-10-4 MOE microwalk gapmer (Table 46) (antisense eA*e[5mC]*dA*dG*dT*dT*dT*d[5mC]*dT*dG*dG*d[5mC]*eA*eG)” registered a body weight in series [7] of 42 g.

Source of the values: patent US20230263822A1, “MODULATION OF FACTOR 11 EXPRESSION” (Ionis Pharmaceuticals, Inc., priority 2008, published 2023).
